Active and inactive are the calls of the source.
Tests used:
Cytochrome P450 2C19 = Cytochrome P450 2C19 (Homo sapiens, UniProt P33261); assay: Cytochrome panel assay with activity outcomes. Panel member name: p450-cyp2c19 Compounds with AC50 equal or less than 10 uM are considered active; type: functional
Cytochrome P450 1A2 = target: T1, Cytochrome P450 1A2 (Homo sapiens, UniProt P05177);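 further: PubChem cytochrome P450 panel assay, CYP1A2 panel member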
T1 sequence (P05177 whole entry): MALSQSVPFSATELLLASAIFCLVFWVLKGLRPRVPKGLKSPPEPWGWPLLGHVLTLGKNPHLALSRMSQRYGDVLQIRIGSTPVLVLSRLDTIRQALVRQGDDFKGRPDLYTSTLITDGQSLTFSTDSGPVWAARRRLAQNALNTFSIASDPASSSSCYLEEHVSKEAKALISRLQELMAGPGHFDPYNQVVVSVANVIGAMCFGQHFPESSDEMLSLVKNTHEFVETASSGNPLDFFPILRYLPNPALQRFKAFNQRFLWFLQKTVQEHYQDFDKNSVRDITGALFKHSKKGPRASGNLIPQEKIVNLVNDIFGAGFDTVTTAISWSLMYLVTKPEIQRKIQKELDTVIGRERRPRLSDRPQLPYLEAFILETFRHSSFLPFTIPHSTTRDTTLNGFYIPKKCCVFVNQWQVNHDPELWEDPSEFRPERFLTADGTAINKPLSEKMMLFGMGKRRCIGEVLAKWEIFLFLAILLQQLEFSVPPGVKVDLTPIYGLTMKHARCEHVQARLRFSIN

Cytochrome P450 3A4 = Cytochrome P450 3A4 (Homo sapiens, UniProt P08684);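 further: CYP3A4 tested as one member of a cytochrome P450 panel screen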
Sequence of Cytochrome P450 3A4 (P08684 whole entry): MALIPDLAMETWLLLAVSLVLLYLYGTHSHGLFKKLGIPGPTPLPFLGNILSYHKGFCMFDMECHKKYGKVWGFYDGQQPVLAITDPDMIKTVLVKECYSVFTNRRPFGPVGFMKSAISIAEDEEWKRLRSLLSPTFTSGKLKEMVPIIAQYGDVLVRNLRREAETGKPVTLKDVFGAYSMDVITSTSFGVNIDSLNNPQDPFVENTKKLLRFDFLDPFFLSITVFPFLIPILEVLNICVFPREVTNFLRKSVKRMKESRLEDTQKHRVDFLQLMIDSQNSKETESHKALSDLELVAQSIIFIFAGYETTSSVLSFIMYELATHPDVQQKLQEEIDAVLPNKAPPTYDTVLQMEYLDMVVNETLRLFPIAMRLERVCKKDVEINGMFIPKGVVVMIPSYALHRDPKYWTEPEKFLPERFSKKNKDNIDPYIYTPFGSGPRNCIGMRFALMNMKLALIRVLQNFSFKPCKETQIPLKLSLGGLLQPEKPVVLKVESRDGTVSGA

Cytochrome P450 2D6 = Cytochrome P450 2D6 (Homo sapiens, UniProt P10635);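 further: CYP2D6 member of a cytochrome P450 panel assay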
Sequence of Cytochrome P450 2D6 (P10635 whole entry): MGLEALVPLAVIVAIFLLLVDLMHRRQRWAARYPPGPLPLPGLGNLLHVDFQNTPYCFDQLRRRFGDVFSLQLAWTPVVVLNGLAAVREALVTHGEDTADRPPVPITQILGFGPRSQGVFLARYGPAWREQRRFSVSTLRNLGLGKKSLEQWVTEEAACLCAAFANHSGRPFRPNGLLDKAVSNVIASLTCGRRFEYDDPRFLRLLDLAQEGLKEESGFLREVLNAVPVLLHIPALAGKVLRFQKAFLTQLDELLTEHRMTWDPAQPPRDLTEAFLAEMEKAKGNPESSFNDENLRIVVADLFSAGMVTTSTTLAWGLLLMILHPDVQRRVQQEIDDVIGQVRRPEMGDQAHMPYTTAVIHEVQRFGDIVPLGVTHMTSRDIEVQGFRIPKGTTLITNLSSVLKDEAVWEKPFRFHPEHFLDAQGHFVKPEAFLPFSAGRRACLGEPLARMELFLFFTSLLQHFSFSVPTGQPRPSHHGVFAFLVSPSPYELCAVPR

[1] = viability of uninfected HEp-2 cells – cell-based, HTS, cytotoxicity control for RSV inhibitor project, dose response (AID 2410); type: functional; conditions: human respiratory syncytial virus
[2] = microbe, parasite or virus in culture; type: functional; conditions: Mycobacterium tuberculosis
INS1 = assay: INS-1E survival protection against cytokine death – cell-based, luminescence, retest, dose response (AID 449756); type: functional; conditions: Rattus norvegicus;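 further: cell death triggered by IL-1 beta plus TNF-alpha plus IFN-gamma mixture; protective hits raise ATP signal compared with cytokine alone wells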
[3] = NIH-3T3 fibroblast cytotoxicity, dose response, cytotoxicity control, cell-based, fluorescence, Alamar Blue, secondary assay (AID 2327); type: functional;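 further: NIH-3T3 mouse fibroblasts cultured with fluconazole at 8 µg/mL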
[4] = fluconazole-exposed Candida albicans growth modulators – fluorescence, retest, confirmation (AID 2467); type: functional, cell-based
[5] = viability of HCT116 lacking mutant beta-catenin – cell-based, human colon tumor, dose response (AID 1045); type: functional;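 further: HCT116 colon tumor cells with beta catenin knocked out; cells exposed to compound for 60 hours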
[6] = Luminescence Cell-Based Dose Response HTS to Identify Activators of Luciferase Translation or Activity in H4 […] Cells. [Related pubchem assays: 1829 (Project Summary), 1814 (Primary HTS)]; type: functional
H4 = assay: Luminescence Cell-Based Dose Response HTS to Identify Activators of 5'UTR Stem-Loop Driven Prion Protein mRNA Translation in H4 Neuroglioblastoma Cells. [Related pubchem assays: 1829 (Project Summary), 1814 (Primary HTS)]; type: functional; conditions: Homo sapiens
[7] = Luminescence Cell-Based Dose Retest to Confirm Inhibitors of Cancer Stem Cells. [Related pubchem assays (depositor defined):AID2717, AID2721]; type: functional; conditions: Homo sapiens
[8] = system: Streptococcus sp. 'group A'; assay: Streptococcus pyogenes SK(-)GAS viability under kanamycin – luminescence, BacTiterGlo, confirmation, counter-screen for streptokinase expression inhibitor project, dose response (AID 1900); type: functional, organism-based
Streptokinase A = target: T2, Streptokinase A (Streptococcus pyogenes serotype M1, UniProt P10520); assay: viability-normalized secreted streptokinase activity reduction – plasminogen activation absorbance, OD405, dose response (AID 1914); type: functional, Streptococcus pyogenes M1 GAS;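 further: secreted streptokinase activity via plasminogen activation per viability signal from cell pellet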
T2 sequence (P10520 whole entry): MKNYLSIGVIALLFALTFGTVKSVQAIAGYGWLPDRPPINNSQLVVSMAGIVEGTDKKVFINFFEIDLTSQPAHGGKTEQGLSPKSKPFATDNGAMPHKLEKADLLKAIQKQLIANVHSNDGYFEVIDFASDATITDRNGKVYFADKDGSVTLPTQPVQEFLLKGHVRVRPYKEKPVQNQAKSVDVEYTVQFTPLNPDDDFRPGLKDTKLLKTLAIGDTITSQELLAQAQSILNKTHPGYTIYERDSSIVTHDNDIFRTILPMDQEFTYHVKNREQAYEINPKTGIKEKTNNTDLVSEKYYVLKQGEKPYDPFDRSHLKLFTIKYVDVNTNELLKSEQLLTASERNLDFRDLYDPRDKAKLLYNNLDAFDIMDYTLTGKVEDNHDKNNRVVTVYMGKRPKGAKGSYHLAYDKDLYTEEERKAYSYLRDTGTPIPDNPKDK

Streptococcus = assay: GAS UMAA2166 growth inhibition – luminescence, BacTiterGlo, counter-screen for streptokinase expression inhibitor project, dose response (AID 1915); type: functional, organism-based;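 further: potency for reduction of bacterial viability or growth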
Paired box protein Pax-8 = Paired box protein Pax-8 (Homo sapiens, UniProt Q06710); assay: PAX8 transcriptional activity inhibition in RMG-I – RMG-I cells, luciferase, cherry-pick, dose response (AID 687027); type: functional, cell-based;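 further: luciferase reporter driven by Pax8 target thyroperoxidase promoter measured by SteadyGlo luminescence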
Sequence of Paired box protein Pax-8 (Q06710 whole entry): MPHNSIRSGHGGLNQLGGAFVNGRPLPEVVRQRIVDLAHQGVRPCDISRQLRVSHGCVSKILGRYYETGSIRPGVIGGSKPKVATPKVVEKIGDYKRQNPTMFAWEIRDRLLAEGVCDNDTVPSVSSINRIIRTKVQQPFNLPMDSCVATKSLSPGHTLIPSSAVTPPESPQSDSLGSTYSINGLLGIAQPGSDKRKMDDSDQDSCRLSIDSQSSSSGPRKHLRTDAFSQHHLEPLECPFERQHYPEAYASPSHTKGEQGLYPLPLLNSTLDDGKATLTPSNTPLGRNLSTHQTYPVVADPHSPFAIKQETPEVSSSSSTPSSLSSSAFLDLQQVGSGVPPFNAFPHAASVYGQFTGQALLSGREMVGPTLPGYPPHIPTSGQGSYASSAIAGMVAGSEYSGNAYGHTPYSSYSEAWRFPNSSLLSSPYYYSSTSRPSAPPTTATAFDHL

Sequence of Cytochrome P450 2C19 (P33261 whole entry): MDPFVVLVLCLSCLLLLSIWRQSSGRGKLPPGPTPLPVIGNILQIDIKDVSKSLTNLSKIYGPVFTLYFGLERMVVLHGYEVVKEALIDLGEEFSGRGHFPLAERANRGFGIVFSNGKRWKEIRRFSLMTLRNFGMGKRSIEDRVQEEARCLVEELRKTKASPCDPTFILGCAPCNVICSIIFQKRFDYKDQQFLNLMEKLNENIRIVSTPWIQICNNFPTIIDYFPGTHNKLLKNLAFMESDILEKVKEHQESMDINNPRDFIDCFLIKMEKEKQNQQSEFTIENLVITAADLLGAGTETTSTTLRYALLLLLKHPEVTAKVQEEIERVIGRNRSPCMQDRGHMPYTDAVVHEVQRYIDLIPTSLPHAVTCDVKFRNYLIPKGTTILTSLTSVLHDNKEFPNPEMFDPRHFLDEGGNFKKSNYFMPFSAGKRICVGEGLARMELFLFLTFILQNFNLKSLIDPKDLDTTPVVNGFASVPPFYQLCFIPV

## O=C(OCc1ccc(Cl)cc1)c1ccccc1C(=O)c1ccccc1
Cytochrome P450 2C19; read-out: AC50
  AC50: 0.0891 µM (inconclusive)
Cytochrome P450 1A2
  AC50: 3.55 µM (inconclusive)
Cytochrome P450 3A4
  AC50: 17.8 µM (inconclusive)

## C/C(CCN1CCCCc2nc(C)c(C)cc21)=N\O[C@@H](C)CN1CCCCc2nc(C)c(C)cc21
Cytochrome P450 2D6
  AC50: 5.01 µM (inconclusive)

## CCNc1ncc2nc(-c3cc(F)cc(F)c3)c(=O)n(CCc3ccccc3)c2n1
Cytochrome P450 1A2
  AC50: 25.1 µM (inconclusive)
Cytochrome P450 3A4
  AC50: 12.6 µM (inconclusive)

## CN(C)c1nc(-c2ccoc2)nc2ccccc12
Cytochrome P450 2C19; read-out: AC50
  AC50: 31.6 µM (inconclusive)
Cytochrome P450 2D6
  AC50: 39.8 µM (inconclusive)
Cytochrome P450 3A4
  AC50: 25.1 µM (inconclusive)

## Cc1ccc(CSCc2ccc(C(=O)NCCC(C)C)o2)cc1
[1]
  CC50: 20.2 µM (active)

## CC1CCc2c(sc3ncnc(NCCCOC(C)C)c23)C1 (configuration not stated)
[2]
  CC50: > 40 µM (active)

## Cc1cc(Nc2ccc(Br)cc2)nc(-c2ccccc2O)n1
[1]
  CC50: 31.9 µM (active)

## CCS(=O)(=O)c1ccc(OC)c(N=Nc2ccc(O)c3ncccc23)c1
INS1
  AC50: 8.44 µM (active)

## CCCc1ccc(C(=O)NNc2cccc(C)c2)cc1
[3]
  EC50: 30.2 µM (active)
[4]
  EC50: > 38 µM (not active)

## CCC(C)C1C(C#N)=C(N)Oc2[nH]nc(C)c21 (configuration not stated)
[5]
  EC50: 189 µM (active)

## CC(=O)NCCNc1nc(-c2ccc(N(C)C)cc2)nc2ccccc12
Cytochrome P450 2D6
  AC50: 20 µM (inconclusive)
Cytochrome P450 3A4
  AC50: 10 µM (inconclusive)

## COc1ccc(-c2nn(-c3ccccc3)cc2/C=C\C(=O)Nc2ccc(C(=O)O)cc2)cc1
[1]
  CC50: 26.4 µM (active)

## Oc1nc2c(-c3cccc(Br)c3)nnn2c2ccccc12
[6]
  EC50: 0.258 µM (active)
H4
  EC50: 18.8 µM (active)

## COc1ccccc1-c1nccc(NC2CCNCC2)n1
Cytochrome P450 2C19; read-out: AC50
  AC50: 1.58 µM (inconclusive)
Cytochrome P450 1A2
  AC50: 15.8 µM (inconclusive)

## Fc1cccc(CCN2CCNC[C@H]2Cc2cccc3ccccc23)c1
[2]
  CC50: 26.2 µM (active)

## Cc1cc(C)cc(NC(=O)NCC(O)COc2ccc([N+](=O)[O-])cc2)c1 (configuration not stated)
[1]
  CC50: > 50 µM (active)

## CSc1ccccc1OCc1cc(C(=O)N2CCc3c(Cl)cccc3C2)no1
INS1
  AC50: 7.1 µM (active)

## COc1cc(OC)cc(N(C(=O)C2COc3ccccc3O2)C(C(=O)NC2CCCCC2)c2ccc(O)cc2)c1 (configuration not stated)
[3]
  EC50: 94.7 µM (active)
[4]
  EC50: 0.798 µM (inconclusive)

## COc1cc(/C=C/c2nc(O)nc(O)c2[N+](=O)[O-])ccc1OCCC(C)C
[1]
  CC50: 19.1 µM (active)
[7]
  AC50: 5.94 µM (active)

## CCOC(=O)N1CCN(C(=O)c2cccn3c(=O)c4cc(Cl)ccc4nc23)CC1
Cytochrome P450 1A2
  AC50: 25.1 µM (inconclusive)

## CN1CCN(C(=O)c2ccc(-n3cccc3)cc2)CC1
Cytochrome P450 2C19; read-out: AC50
  AC50: 25.1 µM (inconclusive)
Cytochrome P450 2D6
  AC50: 15.8 µM (inconclusive)
Cytochrome P450 1A2
  AC50: 25.1 µM (inconclusive)

## COCCCNC(=O)Cn1nnc(-c2ccc(NC(=O)c3cccnc3)cc2)n1
INS1
  AC50: 3.95 µM (active)

## O=C1CCCN1c1ccc(S(=O)(=O)Oc2cccc(Cl)c2)cc1[N+](=O)[O-]
Cytochrome P450 2D6
  AC50: 1.78 µM (inconclusive)

## CCCC1CCC(c2ccc(C(=O)NN)cc2)CC1 (configuration not stated)
INS1
  AC50: 10.9 µM (active)

## COc1cccc(NC(=O)CSc2nc3ccccc3cc2Cc2ccccc2)c1
Cytochrome P450 1A2
  AC50: 4.47 µM (inconclusive)

## Cn1c(=O)c(-c2ccc(Cl)cc2)nc2cnc(Nc3ccccc3)nc21
Cytochrome P450 1A2
  AC50: 31.6 µM (inconclusive)

## Cc1ccc2c(c1)N(C(=O)CCC(=O)N1CCN(c3cccc(C)c3C)CC1)CCO2
[1]
  CC50: 5.57 µM (active)

## COc1ccc(/C=C/C(=O)Nc2ccccc2C(=O)N2CCCC2)cc1
Cytochrome P450 1A2
  AC50: 28.2 µM (inconclusive)
Cytochrome P450 3A4
  AC50: 1 µM (inconclusive)

## Cc1n[nH]c(SC(C(=O)c2ccccc2)c2ccccc2)n1 (configuration not stated)
Cytochrome P450 2D6
  AC50: 20 µM (inconclusive)
Cytochrome P450 1A2
  AC50: 39.8 µM (inconclusive)

## O=C(NCc1ccco1)Nc1cccs1
Cytochrome P450 2D6
  AC50: 14.1 µM (inconclusive)
Cytochrome P450 3A4
  AC50: 20 µM (inconclusive)

## Oc1ncnc2c1sc1nc3c(c(-c4ccc(Cl)cc4)c12)CCC3
[1]
  CC50: > 50 µM (active)

## Cc1cccc(NC(=O)c2[nH]cnc2C(=O)NCC(=O)OC(C)(C)C)c1
[1]
  CC50: > 50 µM (active)

## O=C(Nc1nc(-c2cc(Cl)sc2Cl)cs1)c1cccs1
[8]
  EC50: 14.2 µM (active)
Streptokinase A
  EC50: > 50 µM (not active)
[2]
  CC50: 25.9 µM (active)
Streptococcus
  EC50: 18.1 µM (active)
[7]
  AC50: 1.13 µM (active)

## COCCSc1nnc(NC(=O)CCS(=O)(=O)c2ccccc2)s1
[3]
  EC50: > 150 µM (inactive)
[4]
  EC50: 3.97 µM (active)

## CC(C)CCNC(=O)C(c1ccco1)N(Cc1ccc(F)cc1)C(=O)c1snc(C(N)=O)c1N (configuration not stated)
[3]
  EC50: 26.5 µM (active)
[4]
  EC50: > 38 µM (not active)

## CCOc1ncccc1C(=O)Nc1ccc(F)cc1
[1]
  CC50: 46.3 µM (active)

## C[C@@H](NC(=O)c1[nH]cnc1C(=O)N[C@@H](Cc1ccccc1)C(=O)OC(C)(C)C)c1ccccc1
Paired box protein Pax-8
  AC50: 5.32 µM (active)

## Cc1ccc(S(=O)(=O)c2nc(Nc3nccs3)sc2Cl)cc1
[2]
  CC50: > 40 µM (active)

## COCCSc1nnc(NC(=O)C(C)(C)C)s1
Cytochrome P450 1A2
  AC50: 25.1 µM (inconclusive)

## N=C(NOC(=O)C12CC3CC(CC(C3)C1)C2)c1ccccc1
[5]
  EC50: 90.5 µM (active)

## CC(C)[C@H](N)c1nnc(SCc2ccc(Cl)cc2)o1
Cytochrome P450 2D6
  AC50: 28.2 µM (inconclusive)

## CCC(=O)c1ccc(OCC(O)CN2CCCCC2)cc1.Cl (configuration not stated)
Cytochrome P450 2C19
  AC50: inconclusive
Cytochrome P450 2D6
  AC50: 39.8 µM (inconclusive)

## CC1CCCC=CC2CC(OC(=O)CN(C)C)CC2C(O)C=CC(=O)O1 (configuration not stated)
Paired box protein Pax-8
  AC50: < 0.26 µM (active)

## CC(=O)NC(Cc1ccc(F)cc1)C(=O)O (configuration not stated)
Cytochrome P450 1A2
  AC50: 0.01 µM (inconclusive)

## COc1ccc(CN(C)C[C@H]2OCCCC[C@H](C)Oc3ccc(NC(=O)Nc4ccc(C(F)(F)F)cc4)cc3C(=O)N([C@H](C)CO)C[C@@H]2C)cc1
Paired box protein Pax-8
  AC50: 10.9 µM (active)

## c1ccc2nc(-c3ccncc3)ccc2c1
[1]
  CC50: 25.4 µM (active)

## O=C(Nc1cnc2ccccc2c1)c1cccc(-n2cnnn2)c1
Cytochrome P450 2D6
  AC50: 7.94 µM (inconclusive)

## CC1(C)C=Cc2c(ccc3c2OC[C@@H](c2ccc(O)cc2O)C3)O1 [GLABRIDIN]
[1]
  CC50: 13.4 µM (active)
[7]
  AC50: 6.05 µM (active)
